Assay results from patent US20100233231A1, “USE OF CRYOGENIC PROCESSING TO OBTAIN A SUBSTANTIALLY-THICKENED FORMULATION” (priority 2009, published 2010).
Values belong to the compound of their own block, whether it stands above or below them.

Assay: Consistency and homogeneity of the formulation after cryo-processing (observation)
Type: physicochemical
Conditions: 8 cycles
Method: Fish oil was cured to a film with the use of heat.
It was processed in a Spex Certiprep cryogrinder for 8 cycles, each cycle lasting 2.0 minutes and with a 2.0 minute between-cycle cool down to maintain the system at cryogenic temperatures.

SMILES: O=C(CO)[C@@H](O)[C@H](O)[C@H](O)CO [Fructose]
- consistency of resulting formulation (Example 5: 40% in 100% fish oil, 20 impacts per second): highly viscous upon standing and was extremely shear thinning

SMILES: CO[C@H]1C[C@@H]2CC[C@@H](C)[C@@](O)(O2)C(=O)C(=O)N2CCCC[C@H]2C(=O)O[C@H]([C@H](C)C[C@@H]2CC[C@@H](O)[C@H](OC)C2)CC[C@H](C)/C=C(\C)[C@@H](O)[C@@H](OC)C(=O)[C@H](C)C[C@H](C)/C=C/C=C/C=C/1C [Rapamycin derivative]
- consistency of resulting formulation (Example 2: 31% in 70% fish oil 30% vitamin E, 20 impacts per second): highly viscous and shear thinning with small crystals evident throughout the sample

- consistency of resulting formulation (Example 7: 30% in 70% fish oil 30% Vitamin E, 30 impacts per second): highly viscous and smooth
SMILES: CCCCCCCCCCCCCCCCO [Cetyl Alcohol]
